Drawing on patent US10611750B2, “Tetrahydroquinoline compositions as bet bromodomain inhibitors” (FORMA Therapeutics, Inc., priority 2013, dated 2020), this text covers IC50 for 20 compounds.

In assay [1] the target is T1, BRD4 Bromodomain 1 (BRD4 BD1) (Homo sapiens, UniProt O60885).
T1 construct: 44-168 and BRD4 BD2
Put plainly: AlphaScreen binding assay, BRD4 BD1. Particulars: His-tagged BRD4 BD1 50 nM, biotinylated H4 (1-21) K5/8/12/16 tetra-acetylated peptide 50 nM, compounds listed under IC50 range headings. The method, then: The binding of Example compounds to BRD4 Bromodomain 1 and BRD4 Bromodomain 2 was assessed using 384-well AlphaScreen assay technology. His-epitope tagged BRD4 BD144-168 and BRD4 BD2333-460 were cloned, expressed, and purified to homogeneity. BRD4 BD1 and BRD4 BD2 binding and inhibition was assessed by monitoring the engagement of biotinylated Histone H4 (1-21) K5/8/12/16 tetra-acetylated peptide with the targets using the AlphaScreen technology (PerkinElmer). Specifically, in a 384-well black or white flat bottom plate, BRD4 BD1 (50 nM final) or BRD4 BD2 (100 nM final) was combined with peptide (50 nM final for BD1 or 100 nM final for BD2) in 50 mM HEPES (pH 7.3), 100 mM NaCl, 0.1% (w/v) BSA, and 0.01% (w/v) Triton X-100 either in the presence of DMSO (final 1.25% DMSO) or compound dilution series in DMSO. Alpha streptavidin donor beads and Nickel-chelate acceptor beads were added to a final concentration of 10 μg/ml each. After a minimum of 1 hour equilibration, plates were read on a BMG PHERAstar FS multi-label reader (BMG LabTech). The half maximal inhibitory concentration (IC50) values were calculated using IDBS Activity Base software with a four parameter logistic curve fit by the equation y=A+((B−A)/(1+((C/x)^D))), wherein A denotes the bottom plateau of the curve, B denotes the top plateau of the curve, C denotes the x value at the middle of the curve, D denotes the slope factor, x denotes the original known x values, and y denotes the original known y values. Data was fitted using the Levenburg Marquardt algorithm.
On the technique in general: Alpha assays give light when donor and acceptor beads are brought close together.

The test system of assay [2] is acute myelocytic leukemia (AML) cell line MV4-11. Briefly: Oncology cell growth assay (3-day proliferation, CellTiter-Glo). It counts as cell-based. Particulars: Homo sapiens, MV4-11, 72 h, MV4-11 cells, 3000 cells/well, compounds listed under IC50 range headings, read-out: MV411 IC50 (gIC50, inhibition of proliferation). The method, then: The impact of Example compounds on cancer cell proliferation was determined using the acute myelocytic leukemia (AML) cell line MV4-11 (ATCC) in a 3-day proliferation assay. MV4-11 cells were maintained in RPMI 1640 media supplemented with 10% FBS at 37° C. and an atmosphere of 5% CO2. For compound testing, compound dilutions series were prepared in DMSO via a 3-fold serial dilution from 2 mM to 0.001 mM in 384-well white flat bottom plates. The final compound concentrations in the wells were 10, 3.3, 1.1, 0.37, 0.12, 0.041, 0.013 and 0.0045 μM. MV4-11 cells were plated at a density of 3000 cells/well in final volume of 50 μl culture media and incubated for 72 hours. […] Luminescent signal from the CellTiter-Glo assay was read on an EnVision multilabel plate reader (PerkinElmer). Values for the concentration that inhibited cell growth by 50% (gIC50) between the DMSO control and background control (no cells) were determined using IDBS Activity Base software with a four parameter logistic curve fit by the equation y=A+((B−A)/(1+((C/x)^D))), wherein A denotes the bottom plateau of the curve, B denotes the top plateau of the curve, C denotes the x value at the middle of the curve, D denotes the slope factor, x denotes the original known x values, and y denotes the original known y values. Data was fitted using the Levenburg Marquardt algorithm.
(In general: In ATP-based viability assays light output follows the ATP content of the culture.)

In the case of `COC(=O)N1c2ccc(-c3csc(C4(O)CNC4)n3)c(OC3CCC3)c2CC[C@@H]1C` [I-314, (S)-methyl-5-cyclobutoxy-6-(2-(3-hydroxyazetidin-3-yl)thiazol-4-yl)-2-methyl-3,4-dihydroquinoline-1(2H)-carboxylate], the IC50 in assay [1] was 1000 to 10000 nM; in assay [2], greater than 1000 nM.

Regarding `CC(=O)N1c2c(F)cc(-c3cnn(C4CC4)c3)c(Oc3ccccc3)c2CC[C@@H]1C` [I-241, (S)-1-(6-(1-cyclopropyl-1H-pyrazol-4-yl)-8-fluoro-2-methyl-5-phenoxy-3,4-dihydroquinolin-1(2H)-yl)ethanone], the IC50 in assay [1] was 100 to 1000 nM; in assay [2], less than 500 nM.

For the compound `COC(=O)N1c2ccc(-c3cnn(C4CC5CNCC5C4)c3)c(Oc3ccc(F)cc3)c2CC[C@@H]1C` (stereo partly drawn) [I-186, (2S)-methyl 5-(4-fluorophenoxy)-2-methyl-6-(1-(octahydrocyclopenta[c]pyrrol-5-yl)-1H-pyrazol-4-yl)-3,4-dihydroquinoline-1(2H)-carboxylate], the results for the IC50 in assay [1] and in assay [2] were 100 to 1000 nM and less than 500 nM, respectively.

Take `COC(=O)N1c2ccc(-c3cnn(C4CCNCC4)c3)c(Oc3cccc(OC)n3)c2CC[C@@H]1C` [I-335, (S)-methyl 5-(6-methoxypyridin-2-yloxy)-2-methyl-6-(1-(piperidin-4-yl)-1H-pyrazol-4-yl)-3,4-dihydroquinoline-1(2H)-carboxylate]: the figures for the IC50 in assay [1] and in assay [2] were 100 to 1000 nM and less than 500 nM, respectively.

As for `COC(=O)N1c2ccc(-c3cnn(C4CCNC(=O)C4)c3)c(Oc3ccc(F)cc3)c2CC[C@@H]1C` (stereo partly drawn) [I-297, (2S)-methyl 5-(4-fluorophenoxy)-2-methyl-6-(1-(2-oxopiperidin-4-yl)-1H-pyrazol-4-yl)-3,4-dihydroquinoline-1(2H)-carboxylate], the IC50 was 100 to 1000 nM in assay [1] and less than 500 nM in assay [2].

For `COC(=O)N1c2ccc(-c3csc(C4(F)CCNCC4)n3)c(OC3CCC3)c2CC[C@@H]1C` [I-281, methyl (S)-5-cyclobutoxy-6-(2-(4-fluoropiperidin-4-yl)thiazol-4-yl)-2-methyl-3,4-dihydroquinoline-1(2H)-carboxylate], the IC50 in assay [1] fell in the range of 100 to 1000 nM; in assay [2], 500 to 1000 nM.

As for `Cc1cccc(Oc2c(-c3cnn(C4CCNCC4)c3)ccc3c2CC[C@H](C)N3C(=O)C2CC2)n1` [I-331, (S)-cyclopropyl(2-methyl-5-(6-methylpyridin-2-yloxy)-6-(1-(piperidin-4-yl)-1H-pyrazol-4-yl)-3,4-dihydroquinolin-1(2H)-yl)methanone], the results for the IC50 in assay [1] and in assay [2] were 100 to 1000 nM and less than 500 nM, respectively.

On to `C[C@H]1CCc2c(ccc(-c3cnn(C4CCCS(=O)(=O)C4)c3)c2Oc2ccccc2)N1C(=O)C1CC1` (stereo partly drawn) [I-294, 3-{4-[(2S)-1-cyclopropanecarbonyl-2-methyl-5-phenoxy-1,2,3,4-tetrahydroquinolin-6-yl]-1H-pyrazol-1-yl}-1λ^6-thiane-1,1-dione], for which the IC50 is 100 to 1000 nM in assay [1] and less than 500 nM in assay [2].

Take `CC(=O)N1c2c(F)cc(-c3cnn(C4CCNCC4)c3)c(OC3CCC3)c2CC[C@@H]1C` [I-105, (S)-1-(5-cyclobutoxy-8-fluoro-2-methyl-6-(1-(piperidin-4-yl)-1H-pyrazol-4-yl)-3,4-dihydroquinolin-1(2H)-yl)ethanone]: the IC50 in assay [1] was 100 to 1000 nM; in assay [2], less than 500 nM.

For the compound `C[C@H]1CCc2c(ccc(-c3cnn(C4CCNCC4)c3)c2Oc2cccc(F)c2)N1C(=O)C1CC1` [I-171, (S)-cyclopropyl(5-(3-fluorophenoxy)-2-methyl-6-(1-(piperidin-4-yl)-1H-pyrazol-4-yl)-3,4-dihydroquinolin-1(2H)-yl)methanone], the IC50 in assay [1] is 100 to 1000 nM; in assay [2], less than 500 nM.

With `COC(=O)N1c2ccc(-c3cnn(C4CNC4)c3)c(Oc3cc(F)ccc3F)c2CC[C@@H]1C` [I-271, (S)-methyl 6-(1-(azetidin-3-yl)-1H-pyrazol-4-yl)-5-(2,5-difluorophenoxy)-2-methyl-3,4-dihydroquinoline-1(2H)-carboxylate], the IC50 in assay [1] is 100 to 1000 nM; in assay [2], less than 500 nM.

For the compound `COC(=O)N1c2ccc(-c3cnn(C4CCNCC4OC)c3)c(Oc3ccc(F)cc3)c2CC[C@@H]1C` (stereo partly drawn) [I-291, (2S)-methyl 5-(4-fluorophenoxy)-6-(1-(3-methoxypiperidin-4-yl)-1H-pyrazol-4-yl)-2-methyl-3,4-dihydroquinoline-1(2H)-carboxylate], the IC50 in assay [1] is 100 to 1000 nM; in assay [2], less than 500 nM.

For `COC(=O)N1c2ccc(-c3cnn(C4CNC4)c3)c(Oc3cc(F)cc(F)c3)c2CC[C@@H]1C` [I-180, (S)-methyl 6-(1-(azetidin-3-yl)-1H-pyrazol-4-yl)-5-(3,5-difluorophenoxy)-2-methyl-3,4-dihydroquinoline-1(2H)-carboxylate], the figures for the IC50 in assay [1] and in assay [2] were 100 to 1000 nM and less than 500 nM, respectively.

As for `C[C@H]1CCc2c(ccc(-c3cnn(C4CCNCC4)c3)c2Oc2cccc(F)n2)N1C(=O)C1CC1` [I-97, (S)-cyclopropyl(5-(6-fluoropyridin-2-yloxy)-2-methyl-6-(1-(piperidin-4-yl)-1H-pyrazol-4-yl)-3,4-dihydroquinolin-1(2H)-yl)methanone], the figures for the IC50 in assay [1] and in assay [2] were 100 to 1000 nM and less than 500 nM, respectively.

Turning to `C[C@H]1CCc2c(ccc(-c3cnoc3)c2Oc2ccccc2)N1C(=O)C1CC1` [I-231, (S)-cyclopropyl(6-(isoxazol-4-yl)-2-methyl-5-phenoxy-3,4-dihydroquinolin-1 (2H)-yl)methanone], the IC50 was 1000 to 10000 nM in assay [1] and less than 500 nM in assay [2].

Take `C[C@H]1CCc2c(OC3CCC3)c(-c3cn[nH]c3)cc(F)c2N1C(=O)C1CC1` [I-70, (S)-(5-cyclobutoxy-8-fluoro-2-methyl-6-(1H-pyrazol-4-yl)-3,4-dihydroquinolin-1(2H)-yl)(cyclopropyl)methanone]: the IC50 lay in the range of 1000 to 10000 nM in assay [1] and 500 to 1000 nM in assay [2].

Take `C[C@H]1CCc2c(ccc(-c3cnn(C)c3)c2OC2CCC2)N1C(=O)C1CC1` [I-55, (S)-(5-cyclobutoxy-2-methyl-6-(1-methyl-1H-pyrazol-4-yl)-3,4-dihydroquinolin-1 (2H)-yl)(cyclopropyl)methanone]: the IC50 in assay [1] is 100 to 1000 nM; in assay [2], less than 500 nM.

Take `COC(=O)N1c2ccc(-c3csc(N4CC(O)C4)n3)c(OC3CCC3)c2CC[C@@H]1C` [I-317, (S)-methyl 5-cyclobutoxy-6-(2-(3-hydroxyazetidin-1-yl)thiazol-4-yl)-2-methyl-3,4-dihydroquinoline-1(2H)-carboxylate]: the IC50 in assay [1] fell in the range of 100 to 1000 nM; in assay [2] it was 500 to 1000 nM.

`Cc1cc(Oc2c(-c3cnn(C4CCNCC4)c3)ccc3c2CC[C@H](C)N3C(=O)C2CC2)cc(C)n1` [I-330, (S)-cyclopropyl(5-(2,6-dimethylpyridin-4-yloxy)-2-methyl-6-(1-(piperidin-4-yl)-1H-pyrazol-4-yl)-3,4-dihydroquinolin-1(2H)-yl)methanone]: the IC50 in assay [1] was 100 to 1000 nM; in assay [2] it was less than 500 nM.

For `CC(=O)N1c2c(F)cc(-c3cn(C)nn3)c(Oc3ccccc3)c2CC[C@@H]1C` [I-323, (S)-1-(8-fluoro-2-methyl-6-(1-methyl-1H-1,2,3-triazol-4-yl)-5-phenoxy-3,4-dihydroquinolin-1(2H)-yl)ethanone], the IC50 in assay [1] was 1000 to 10000 nM; in assay [2] it was less than 500 nM.
